Calls of active or inactive are those of the source. The rule behind the calls is not given here.
Experiments:
[1] = system: HepG2; assay: Hepatoprotective activity against acetaminophen-induced cell damage in human HepG2 cells assessed as increase in cell survival at 10 uM incubated for 24 hrs by CCK-8 assay relative to control; format: functional; settings: read-out: Survival
[2] = system: RAW264.7; assay: Antiinflammatory activity in LPS-induced mouse RAW264.7 cells assessed as inhibition of NO production at 10 to 40 uM incubated for 24 hrs by Griess reagent based assay; format: functional, cell-based; settings: dose 10-40 µM
[3] = system: RAW264.7; assay: Antiinflammatory activity in LPS-induced mouse RAW264.7 cells assessed as reduction in IL-1beta mRNA expression incubated for 24 hrs by qPCR analysis; format: functional, cell-based; settings: dose 10-40 µM
[4] = system: RAW264.7; assay: Antiinflammatory activity in LPS-induced mouse RAW264.7 cells assessed as reduction in IL-6 mRNA expression incubated for 24 hrs by qPCR analysis; format: functional, cell-based; settings: dose 10-40 µM
[5] = system: RAW264.7; assay: Antiinflammatory activity in LPS-induced mouse RAW264.7 cells assessed as reduction in IL-1beta production at 10 to 40 uM incubated for 24 hrs by ELISA; format: functional, cell-based; settings: dose 10-40 µM
[6] = system: RAW264.7; assay: Antiinflammatory activity in LPS-induced mouse RAW264.7 cells assessed as reduction in IL-6 production at 10 to 40 uM incubated for 24 hrs by ELISA; format: functional, cell-based; settings: dose 10-40 µM

| SMILES | viability at 10 µM [1] [%] | other results |
| --- | --- | --- |
| C[C@H]1[C@H](C)CC[C@]2(C)CC[C@]3(C)C(=CC[C@@H]4[C@@]5(C)CC[C@H](O)C(C)(C)[C@@H]5CC[C@]43C)[C@H]12 | 61 | – |
| COC(=O)c1cc(OC)c2c(c1-c1c(CO)cc(OC)c3c1OCO3)OCO2 [BICYCLOL] | 60 | – |
| CC1(C)CC[C@]2(CO)CC[C@]3(C)C(=CC[C@@H]4[C@@]5(C)CC[C@H](O)C(C)(C)[C@@H]5CC[C@]43C)[C@@H]2C1 [ERYTHRODIOL] | 61 | Activity [2]: Active; Activity [3]: Dose-Dependent Effect; Activity [4]: Dose-Dependent Effect; Activity [5]: Active; Activity [6]: Active |
| C[C@H]1[C@H](C)CC[C@]2(CO)CC[C@]3(C)C(=CC[C@@H]4[C@@]5(C)CC[C@H](O)C(C)(C)[C@@H]5CC[C@]43C)[C@H]12 [UVAOL] | 61 | – |
| CC1(C)CC[C@]2(C)CC[C@]3(C)C(=CC[C@@H]4[C@@]5(C)CC[C@H](O)C(C)(C)[C@@H]5CC[C@]43C)[C@@H]2C1 [beta-AMYRIN] | 61 | – |

— ChEMBL document CHEMBL5385955, “Minor Hydroxylated Triterpenoids Produced in Engineered Yeast by the Enzymes OSC and CYP716s from the Plant Enkianthus chinensis and Their Anti-Inflammatory and Hepatoprotective Activities” (2024)
